These results are taken from US6723702B2, “Use of relaxin treat diseases related to vasoconstriction” (RAS Medical, Inc., priority 2000, dated 2004).

What all share (type): in vivo, rat
One series has as its system conscious rats. Description: Acute infusion of L-NAME during chronic infusion of purified porcine RLX. Conditions: RLX 4 μg/hour s.c. day 5. The protocol:
At least 7 days after the implantation of vascular and bladder catheters, osmotic minipumps containing either porcine RLX (4 μg/hour) or vehicle (Ringer's solution) were implanted in intact, female rats (n=7 and 6 rats, respectively). Renal function and MAP were measured on day 5 of relaxin infusion (three 30-minute urine and midpoint blood collections). Next, an infusion of L-NAME (2 μg/minute, a substrate competitive inhibitor of NO synthase) was administered intravenously (i.v.) by infusion pump (Model 200, KD Scientific, Boston, Mass.). Four 1-hour urine collections with midpoint blood samples were collected for the assessment of GFR, ERPF, and ERVR during the L-NAME administration. Identical procedures were performed on additional animals chronically administered porcine RLX (n=5) or vehicle (n=5), except that ANG II (3 ng/minute) was infused rather than L-NAME. Finally, another four, age-matched control rats were administered Ringer's solution instead of either L-NAME or ANG II on day 5 of porcine RLX infusion.
MAP, GFR, ERPF, and ERVR were measured at time zero (baseline), and at 60, 120, 180, and 240 minutes after administering L-NAME and either RLX or vehicle alone. Values represent the mean±SEM. L-NAME (Nω-nitro-L-arginine methyl ester) was infused at 2 μg/minute intravenously, and relaxin was administered at 4 μg/hour by osmotic minipump subcutaneously. There were 7 and 6 rats, respectively, in the RLX and vehicle groups. An asterisk denotes p<0.05; the symbol H denotes p<0.05 for RLX vs. vehicle.

The test system of another series is small renal arteries. Kind of series: Myogenic reactivity of isolated small renal arteries, pressurized arteriograph. The note with it: female rats administered rhRLX for 5 days (FIG. 14). From the text: Myogenic reactivity is a dynamic and complex integrative vascular behavior which can be assessed in small renal arteries utilizing the pressurized arteriograph. Equivalent tone was first established in all vessels by constricting them to 75% of their baseline diameter at 60 mm Hg using the adrenergic agonist, phenylephrine. Next the arteries which began at an initial pressure of 20 mm Hg were subjected to a rapid increase in transmural pressure of 20 mm Hg increments in the absence of flow. […] This blunted myogenic reactivity following rhRLX treatment of nonpregnant rats mimics pregnancy (Gandley RE, Conrad KP, McLaughlin MK. Am J Physiol Integrative Comp Physiol 280:R1-R7, 2001). Morever, as during pregnancy, this blunted myogenic reactivity can be reversed by adding inhibitors of nitric oxide to the vessel bath.

Series [1] is described as follows: Serum rhRLX, quantitative sandwich immunoassay (Example 2). The note with it: 4 μg/hour. From the text: The technique of urine collection has proven to be reliable. Conrad and Colpoys (1986) J. Clin. Invest. 77:236-245; Danielson and Conrad (1995) J. Clin. Invest. 96:482-490; and Danielson and Conrad (1996) Circ. Res. 79:1161-1166. Indeed, after reaching steady-state in this study, the excretion rates of IN and PAH were 91±3 and 100±4% of their respective infusions. After measuring baseline mean arterial pressure and renal function, an osmotic minipump (model 2ML1, Alza Co., Palo Alto Calif.) containing either recombinant human relaxin (rhRLX; n=12 rats) or vehicle (n=7) was implanted subcutaneously on the back using light ether anesthesia. […] Five days later, mean arterial pressure (MAP), glomerular filtration rate (GFR), effective renal plasma flow (ERPF), and other parameters were again assessed as describe above. At this time, the excretion rates of IN and PAH were 91±3 and 98±2% of their respective infusion rates. […]
Inulin concentration in plasma and urine was measured by the anthrone method, and PAH was determined by the method of Bratton and Marshall as modified by Smith. […] Plasma sodium was measured by a Kodak Ektachem Instrument (Rochester, N.Y.). Plasma osmolality was determined by freezing point depression (Advanced Osmometer, Model 3MO, Advanced Instruments, Needham Heights Mass.). […] The rhRLX in serum was measured using a quantitative sandwich immunoassay, again in a blinded fashion. […]

Setting [2] is: L-NAME 2 μg/minute i.v., 60 min.
The mark [3] stands for this setting: L-NAME 2 μg/minute i.v., 120 min.
Where [4] appears, read: L-NAME 2 μg/minute i.v., 180 min.
The mark [5] stands for this setting: L-NAME 2 μg/minute i.v., 240 min.

Turning to “Porcine RLX: lyophilized, purified porcine relaxin (Sherwood and O'Byrne 1974), dissolved in Ringer's solution”, the ERPF in the series on conscious rats (Baseline before L-NAME) is given as 10245; in the series on conscious rats (setting [2]) it was 7520; in the series on conscious rats (setting [3]) it was 7030; in the series with conscious rats (setting [4]) it was 6530; in the series on conscious rats (setting [5]), 5973. In addition, the ERVR is listed as 6.96 in the series on conscious rats (Baseline before L-NAME); 11.00 in the series with conscious rats (setting [2]); 11.87 with conscious rats (setting [3]); 12.92 with conscious rats (setting [4]); 14.13 with conscious rats (setting [5]). Moreover, the GFR turned out to be 3050 with conscious rats (Baseline before L-NAME); 2776 with conscious rats (setting [2]); 2653 with conscious rats (setting [3]); 2498 with conscious rats (setting [4]); 2392 with conscious rats (setting [5]). Besides, the “MAP (mean arterial pressure)” value is on record as 120 in the series on conscious rats (Baseline before L-NAME); 135 in the series on conscious rats (setting [2]); 136 with conscious rats (setting [3]); 136 in the series with conscious rats (setting [4]); 139 in the series with conscious rats (setting [5]).

Consider “rhRLX: recombinant human relaxin, identical in amino acid sequence to the product of the human H2 gene; A chain of 24, B chain of 29 amino acids”, for which the “myogenic reactivity ex vivo” value in the series on small renal arteries is recorded as “reduced myogenic reactivity”. Also, the “mean serum concentration of rhRLX” value in series [1] (female rats, day 5) worked out at 16.6 ± 1.5 ng/mL; in series [1] (male rats, day 5, n=12), 12.3 ± 0.7 ng/mL.
